# Active and inactive are the calls of the source. The rule behind the calls is not given here.
# Columns and labels:
# Escherichia coli [1] = test: Inhibition of biofilm formation in Escherichia coli RP347 at 50 ug/ml by crystal violet staining based microtiter plate method; assay type: functional, organism-based; details: dose 50.0 µg/ml
# Pseudomonas aeruginosa [2] = test: Inhibition of biofilm formation in Pseudomonas aeruginosa PAO1 at 50 ug/ml by crystal violet staining based microtiter plate method relative to control; assay type: functional
# Escherichia coli [3] = test: Inhibition of biofilm formation in Escherichia coli RP347 at 50 ug/ml by crystal violet staining based microtiter plate method relative to control; assay type: functional; details: for inhibition at 50 µg/mL: Escherichia coli, RP347, dose 50 µg/ml
# Vibrio harveyi [4] = test: Inhibition of AHL-mediated quorum sensing system in Vibrio harveyi BB886 assessed as reduction in luminescence at 10 ug/ml by bioluminescence method relative to control; details: dose 10.0 µg/ml
# Vibrio harveyi [5] = test: Inhibition of AI-2-mediated quorum sensing system in Vibrio harveyi BB170 assessed as reduction in AI-2 production at 10 ug/ml by bioluminescence method relative to control; details: dose 10.0 µg/ml
# Pseudomonas aeruginosa [6] = test: Induction of biofilm formation in Pseudomonas aeruginosa PAO1 at 50 ug/ml by crystal violet staining based microtiter plate method relative to control; assay type: functional; details: dose 50.0 µg/ml
# [7] = Inhibition of Escherichia coli RP347 planktonic cell growth at 50 ug/ml by microplate reader analysis relative to control; assay type: functional; details: RP347, dose 50 µg/ml
inhibition (Vibrio harveyi [5]) [%],SMILES,inhibition (Escherichia coli [1]),inhibition at 50 µg/mL (Escherichia coli [3]) [%],other results
,COc1cccc(C2=C(C(=O)c3ccc(Br)cc3)C(=O)O/C2=C\c2ccc(Br)cc2)c1,Active,,
,COc1cc(C#CC(=O)c2ccc(Br)cc2)ccc1Br,,75.1,inhibition at 50 µg/mL (Pseudomonas aeruginosa [2]): 29%; inhibition (Vibrio harveyi [4]): 80%
> 80,COc1ccc(C2=C(C(=O)c3cccc(Br)c3)C(=O)OC2)cc1Br,Active,81.2,Activity (Pseudomonas aeruginosa [6]): > 80%
100,COc1ccc(C(=O)C#Cc2ccc(Br)c(OC)c2)cc1,Active,,Activity (Pseudomonas aeruginosa [6]): > 80%
,COc1ccc(C2=C(C(=O)c3cccc(Br)c3)C(=O)O/C2=C\c2ccc(Cl)cc2)cc1Br,,100,Activity (Pseudomonas aeruginosa [6]): > 75%
,COc1ccc(C(=O)C2=C(c3ccc(OC)c(Br)c3)/C(=C/c3ccc(Cl)cc3)OC2=O)cc1,Active,,inhibition at 50 µg/mL (Pseudomonas aeruginosa [2]): 10%
,COc1ccc(/C=C2\OC(=O)C(C(=O)c3cccc(Br)c3)=C2c2ccc(OC)c(Br)c2)cc1Br,Active,,
,COc1ccc(C2=C(C(=O)c3ccc(Br)cc3)C(=O)O/C2=C\c2ccc(Br)cc2)cc1Br,Active,,
,O=C1O/C(=C\c2ccc(O)cc2)C(c2ccc(O)c(Br)c2)=C1C(=O)c1ccc(Br)cc1,,100,inhibition at 50 µg/mL [7]: 61.9%
76.1,COc1ccc(/C=C2\OC(=O)C(C(=O)c3ccc(Br)cc3)=C2c2cccc(OC)c2)cc1,Active,,Activity (Pseudomonas aeruginosa [6]): > 75%
,COc1ccc(/C=C2\OC(=O)C(C(=O)c3ccc(Br)cc3)=C2c2ccc(OC)c(Br)c2)cc1,,100,inhibition (Vibrio harveyi [4]): 78.1%
100,COc1ccc(C#CC(=O)c2ccc(Br)cc2)cc1,Active,,inhibition at 50 µg/mL (Pseudomonas aeruginosa [2]): 29%; inhibition at 50 µg/mL [7]: 82.6%
,COc1cccc(C2=C(C(=O)c3ccc(Br)cc3)C(=O)O/C2=C\c2ccc(OC)c(Br)c2)c1,Active,,
100,COc1cc(C#CC(=O)c2cccc(Br)c2)ccc1Br,Active,,
,COc1cc(OC)c(/C=C2\OC(=O)C(C(=O)c3ccc(Br)cc3)=C2c2ccc(OC)c(Br)c2)c(OC)c1,,100,
,O=C1O/C(=C\c2ccc(Br)cc2)C(c2ccc(O)c(Br)c2)=C1C(=O)c1ccc(Br)cc1,,100,inhibition (INH) (Escherichia coli [3]; dose 50 µg/ml): 90%
> 80,COc1ccc(C2=C(C(=O)c3ccc(Br)cc3)C(=O)OC2)cc1Br,,100,inhibition at 50 µg/mL (Pseudomonas aeruginosa [2]): 15.3%; inhibition (Vibrio harveyi [4]): 72.6%
,COc1ccc(C(=O)C2=C(c3ccc(OC)c(Br)c3)COC2=O)cc1,Active,,inhibition at 50 µg/mL [7]: 87.4%
,O=C1O/C(=C\c2ccc(O)c(Br)c2)C(c2ccc(O)c(Br)c2)=C1C(=O)c1ccc(Br)cc1,,100,
99.6,O=C1O/C(=C\c2ccc(O)c(Br)c2)C(c2ccc(O)c(Br)c2)=C1C(=O)c1ccc(O)cc1,,,inhibition at 50 µg/mL (Pseudomonas aeruginosa [2]): 10%; inhibition (Vibrio harveyi [4]): 88.7%; inhibition at 50 µg/mL [7]: 33.4%
,COc1ccc(/C=C2\OC(=O)C(C(=O)c3ccc(Br)cc3)=C2c2ccc(OC)c(Br)c2)cc1Br,Active,,inhibition (Vibrio harveyi [4]): 76.1%; Activity (Pseudomonas aeruginosa [6]): > 75%
74.9,COc1ccc(C(=O)C2=C(c3ccc(OC)c(Br)c3)/C(=C/c3ccc(OC)c(Br)c3)OC2=O)cc1,Active,,
,COc1ccc(C2=C(C(=O)c3ccc(Br)cc3)C(=O)O/C2=C\c2ccc(C(F)(F)F)cc2)cc1Br,,,Activity (Pseudomonas aeruginosa [6]): > 75%
,O=C1O/C(=C\c2ccc(O)c(Br)c2)C(c2ccc(O)c(Br)c2)=C1C(=O)c1cccc(Br)c1,Active,,
,COc1cccc(C2=C(C(=O)c3ccc(Br)cc3)C(=O)OC2)c1,Active,,inhibition at 50 µg/mL (Pseudomonas aeruginosa [2]): 22.7%; inhibition at 50 µg/mL [7]: 76.5%

# From ChEMBL document CHEMBL5131415, “Cadiolide analogues and their precursors as new inhibitors of bacterial quorum sensing and biofilm formation” (2022)
